# Assay results from PubChem BioAssay AID1918999 (Molecular Pharmacology Branch, DTP, NCI, 2023).
# Test system: 556581-035-R-J1-PDC complex spheroid growth
# Test: Anticancer human tumor 556581-035-R-J1-PDC patient-derived ovarian carcinoma cell line growth inhibition [AhR]
# Conditions: for IC50: curve of first compound; for viability, T/C: stronger effect = lower value
# Procedure, shortened: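 Agents were dosed in half-log steps down from roughly clinical Cmax, or from 10 microM where Cmax was unknown, alone and with AhR antagonists. Read-out: percent test/control growth of tumor spheroids containing HUVEC and MSC stromal cells.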
# [1] = second compound 0.1 µM, first compound 0.0316 µM
# [2] = second compound 0.1 µM, first compound 0.1 µM
# [3] = second compound 0.1 µM, first compound 0.316 µM
# [4] = second compound 0.1 µM, first compound 1 µM
# [5] = second compound 0.1 µM, first compound 3.16 µM
# [6] = second compound 0.1 µM, first compound 10 µM
# [7] = second compound 0.316 µM, first compound 0.0316 µM
# [8] = second compound 0.316 µM, first compound 0.1 µM
# [9] = second compound 0.316 µM, first compound 0.316 µM
# [10] = second compound 0.316 µM, first compound 1 µM
# [11] = second compound 0.316 µM, first compound 3.16 µM
# [12] = second compound 0.316 µM, first compound 10 µM
# [13] = second compound 1 µM, first compound 0.0316 µM
# [14] = second compound 1 µM, first compound 0.1 µM
# [15] = second compound 1 µM, first compound 0.316 µM
# [16] = second compound 1 µM, first compound 1 µM
# [17] = second compound 1 µM, first compound 3.16 µM
# [18] = second compound 1 µM, first compound 10 µM
# [19] = second compound 3.16 µM, first compound 0.0316 µM
# [20] = second compound 3.16 µM, first compound 0.1 µM
# [21] = second compound 3.16 µM, first compound 0.316 µM
# [22] = second compound 3.16 µM, first compound 1 µM
# [23] = second compound 3.16 µM, first compound 3.16 µM
# [24] = second compound 3.16 µM, first compound 10 µM
# [25] = second compound 10 µM, first compound 0.0316 µM
# [26] = second compound 10 µM, first compound 0.1 µM
# [27] = second compound 10 µM, first compound 0.316 µM
# [28] = second compound 10 µM, first compound 1 µM
# [29] = second compound 10 µM, first compound 3.16 µM
# [30] = second compound 10 µM, first compound 10 µM
# [31] = second compound 0.1 µM, first compound 0.00949 µM
# [32] = second compound 0.1 µM, first compound 0.03 µM
# [33] = second compound 0.1 µM, first compound 0.0949 µM
# [34] = second compound 0.1 µM, first compound 0.3 µM
# [35] = second compound 0.316 µM, first compound 0.00949 µM
# [36] = second compound 0.316 µM, first compound 0.03 µM
# [37] = second compound 0.316 µM, first compound 0.0949 µM
# [38] = second compound 0.316 µM, first compound 0.3 µM
# [39] = second compound 1 µM, first compound 0.00949 µM
# [40] = second compound 1 µM, first compound 0.03 µM
# [41] = second compound 1 µM, first compound 0.0949 µM
# [42] = second compound 1 µM, first compound 0.3 µM
# [43] = second compound 3.16 µM, first compound 0.00949 µM
# [44] = second compound 3.16 µM, first compound 0.03 µM
# [45] = second compound 3.16 µM, first compound 0.0949 µM
# [46] = second compound 3.16 µM, first compound 0.3 µM
# [47] = second compound 10 µM, first compound 0.00949 µM
# [48] = second compound 10 µM, first compound 0.03 µM
# [49] = second compound 10 µM, first compound 0.0949 µM
# [50] = second compound 10 µM, first compound 0.3 µM
# 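Wherever viability, T/C is given: compound exposure lasted 7 days; 100% = DMSO vehicle control growth.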
structure (smiles),measurement,setting,value
CC1(C)CCC(CN2CCN(c3ccc(C(=O)NS(=O)(=O)c4ccc(NCC5CCOCC5)c([N+](=O)[O-])c4)c(Oc4cnc5[nH]ccc5c4)c3)CC2)=C(c2ccc(Cl)cc2)C1 + Cc1ccccc1N=Nc1ccc(NC(=O)c2ccnn2C)c(C)c1,IC50,second compound 0.1 µM,> 10 µM
same,IC50,second compound 0.316 µM,> 10 µM
same,IC50,second compound 1 µM,> 10 µM
same,IC50,second compound 3.16 µM,> 10 µM
same,IC50,second compound 10 µM,> 10 µM
same,"viability, T/C",[1],97.1%
same,"viability, T/C",[2],108%
same,"viability, T/C",[3],106%
same,"viability, T/C",[4],103%
same,"viability, T/C",[5],106%
same,"viability, T/C",[6],82.4%
same,"viability, T/C",[7],99.3%
same,"viability, T/C",[8],105%
same,"viability, T/C",[9],113%
same,"viability, T/C",[10],99.6%
same,"viability, T/C",[11],108%
same,"viability, T/C",[12],85.9%
same,"viability, T/C",[13],102%
same,"viability, T/C",[14],101%
same,"viability, T/C",[15],109%
same,"viability, T/C",[16],98.3%
same,"viability, T/C",[17],97.5%
same,"viability, T/C",[18],78.1%
same,"viability, T/C",[19],96.7%
same,"viability, T/C",[20],97.1%
same,"viability, T/C",[21],97.7%
same,"viability, T/C",[22],97.9%
same,"viability, T/C",[23],103%
same,"viability, T/C",[24],90.3%
same,"viability, T/C",[25],101%
same,"viability, T/C",[26],97.5%
same,"viability, T/C",[27],97.6%
same,"viability, T/C",[28],95.6%
same,"viability, T/C",[29],86.7%
same,"viability, T/C",[30],77.2%
CC1COCCN1c1cc(C2(S(C)(=N)=O)CC2)nc(-c2ccnc3[nH]ccc23)n1 (stereo not given) + Cc1ccccc1N=Nc1ccc(NC(=O)c2ccnn2C)c(C)c1,IC50,second compound 0.1 µM,> 10 µM
same,IC50,second compound 0.316 µM,> 10 µM
same,IC50,second compound 1 µM,> 10 µM
same,IC50,second compound 3.16 µM,> 10 µM
same,IC50,second compound 10 µM,> 10 µM
same,"viability, T/C",[1],100%
same,"viability, T/C",[2],99.5%
same,"viability, T/C",[3],96.6%
same,"viability, T/C",[4],92.1%
same,"viability, T/C",[5],78.4%
same,"viability, T/C",[6],59%
same,"viability, T/C",[7],98.8%
same,"viability, T/C",[8],99.2%
same,"viability, T/C",[9],96.7%
same,"viability, T/C",[10],92%
same,"viability, T/C",[11],80.1%
same,"viability, T/C",[12],58.3%
same,"viability, T/C",[13],100%
same,"viability, T/C",[14],100%
same,"viability, T/C",[15],98.6%
same,"viability, T/C",[16],93.9%
same,"viability, T/C",[17],78.4%
same,"viability, T/C",[18],60%
same,"viability, T/C",[19],95.1%
same,"viability, T/C",[20],98.1%
same,"viability, T/C",[21],95.4%
same,"viability, T/C",[22],88%
same,"viability, T/C",[23],73.9%
same,"viability, T/C",[24],58.8%
same,"viability, T/C",[25],96.1%
same,"viability, T/C",[26],97.2%
same,"viability, T/C",[27],93%
same,"viability, T/C",[28],85.2%
same,"viability, T/C",[29],74.5%
same,"viability, T/C",[30],60.8%
CCN(c1cc(-c2ccc(CN3CCOCC3)cc2)cc(C(=O)NCc2c(C)cc(C)[nH]c2=O)c1C)C1CCOCC1 + Cc1ccccc1N=Nc1ccc(NC(=O)c2ccnn2C)c(C)c1,IC50,second compound 0.1 µM,> 3 µM
same,IC50,second compound 0.316 µM,> 3 µM
same,IC50,second compound 1 µM,> 3 µM
same,IC50,second compound 3.16 µM,> 3 µM
same,IC50,second compound 10 µM,> 3 µM
same,"viability, T/C",[31],92%
same,"viability, T/C",[32],97%
same,"viability, T/C",[33],85.8%
same,"viability, T/C",[34],91.5%
same,"viability, T/C","second compound 0.1 µM, first compound 0.949 µM",90.9%
same,"viability, T/C","second compound 0.1 µM, first compound 3 µM",86.8%
same,"viability, T/C",[35],95.2%
same,"viability, T/C",[36],98.2%
same,"viability, T/C",[37],88.9%
same,"viability, T/C",[38],85.4%
same,"viability, T/C","second compound 0.316 µM, first compound 0.949 µM",86.2%
same,"viability, T/C","second compound 0.316 µM, first compound 3 µM",81.1%
same,"viability, T/C",[39],81.4%
same,"viability, T/C",[40],85.6%
same,"viability, T/C",[41],88.4%
same,"viability, T/C",[42],82.6%
same,"viability, T/C","second compound 1 µM, first compound 0.949 µM",82.4%
same,"viability, T/C","second compound 1 µM, first compound 3 µM",89.1%
same,"viability, T/C",[43],84.5%
same,"viability, T/C",[44],88.1%
same,"viability, T/C",[45],87.6%
same,"viability, T/C",[46],73.9%
same,"viability, T/C","second compound 3.16 µM, first compound 0.949 µM",91.8%
same,"viability, T/C","second compound 3.16 µM, first compound 3 µM",78%
same,"viability, T/C",[47],74.9%
same,"viability, T/C",[48],90.3%
same,"viability, T/C",[49],83.8%
same,"viability, T/C",[50],79%
same,"viability, T/C","second compound 10 µM, first compound 0.949 µM",77%
same,"viability, T/C","second compound 10 µM, first compound 3 µM",73.4%
Cn1ncnc1C1c2n[nH]c(=O)c3cc(F)cc(c23)NC1c1ccc(F)cc1 (stereo not given) + Cc1ccccc1N=Nc1ccc(NC(=O)c2ccnn2C)c(C)c1,IC50,second compound 0.1 µM,> 0.1 µM
same,IC50,second compound 0.316 µM,> 0.1 µM
same,IC50,second compound 1 µM,> 0.1 µM
same,IC50,second compound 3.16 µM,> 0.1 µM
same,IC50,second compound 10 µM,> 0.1 µM
same,"viability, T/C","second compound 0.1 µM, first compound 0.000316 µM",102%
same,"viability, T/C","second compound 0.1 µM, first compound 0.001 µM",112%
same,"viability, T/C","second compound 0.1 µM, first compound 0.00316 µM",103%
same,"viability, T/C","second compound 0.1 µM, first compound 0.01 µM",105%
same,"viability, T/C",[1],94.9%
same,"viability, T/C",[2],97.4%
same,"viability, T/C","second compound 0.316 µM, first compound 0.000316 µM",112%
same,"viability, T/C","second compound 0.316 µM, first compound 0.001 µM",114%
same,"viability, T/C","second compound 0.316 µM, first compound 0.00316 µM",113%
same,"viability, T/C","second compound 0.316 µM, first compound 0.01 µM",103%
same,"viability, T/C",[7],104%
same,"viability, T/C",[8],94.3%
same,"viability, T/C","second compound 1 µM, first compound 0.000316 µM",116%
same,"viability, T/C","second compound 1 µM, first compound 0.001 µM",99.6%
same,"viability, T/C","second compound 1 µM, first compound 0.00316 µM",109%
same,"viability, T/C","second compound 1 µM, first compound 0.01 µM",100%
same,"viability, T/C",[13],97.8%
same,"viability, T/C",[14],105%
same,"viability, T/C","second compound 3.16 µM, first compound 0.000316 µM",110%
same,"viability, T/C","second compound 3.16 µM, first compound 0.001 µM",101%
same,"viability, T/C","second compound 3.16 µM, first compound 0.00316 µM",94.6%
same,"viability, T/C","second compound 3.16 µM, first compound 0.01 µM",96.5%
same,"viability, T/C",[19],104%
same,"viability, T/C",[20],111%
same,"viability, T/C","second compound 10 µM, first compound 0.000316 µM",92.2%
same,"viability, T/C","second compound 10 µM, first compound 0.001 µM",108%
same,"viability, T/C","second compound 10 µM, first compound 0.00316 µM",89.8%
same,"viability, T/C","second compound 10 µM, first compound 0.01 µM",98.8%
same,"viability, T/C",[25],93.8%
same,"viability, T/C",[26],92.3%
Nc1ncn(C2CC(O)C(CO)S2)c(=O)n1 (stereo not given) + Cc1ccccc1N=Nc1ccc(NC(=O)c2ccnn2C)c(C)c1,IC50,second compound 0.1 µM,> 0.3 µM
same,IC50,second compound 0.316 µM,> 0.3 µM
same,IC50,second compound 1 µM,> 0.3 µM
same,IC50,second compound 3.16 µM,> 0.3 µM
same,IC50,second compound 10 µM,> 0.3 µM
same,"viability, T/C","second compound 0.1 µM, first compound 0.000949 µM",105%
same,"viability, T/C","second compound 0.1 µM, first compound 0.003 µM",106%
same,"viability, T/C",[31],115%
same,"viability, T/C",[32],97%
same,"viability, T/C",[33],77.8%
same,"viability, T/C",[34],69.5%
same,"viability, T/C","second compound 0.316 µM, first compound 0.000949 µM",93.6%
same,"viability, T/C","second compound 0.316 µM, first compound 0.003 µM",111%
same,"viability, T/C",[35],100%
same,"viability, T/C",[36],95.9%
same,"viability, T/C",[37],78.8%
same,"viability, T/C",[38],63.4%
same,"viability, T/C","second compound 1 µM, first compound 0.000949 µM",99.5%
same,"viability, T/C","second compound 1 µM, first compound 0.003 µM",106%
same,"viability, T/C",[39],99.9%
same,"viability, T/C",[40],91.5%
same,"viability, T/C",[41],102%
same,"viability, T/C",[42],64.5%
same,"viability, T/C","second compound 3.16 µM, first compound 0.000949 µM",87.1%
same,"viability, T/C","second compound 3.16 µM, first compound 0.003 µM",101%
same,"viability, T/C",[43],88.1%
same,"viability, T/C",[44],90.6%
same,"viability, T/C",[45],76.8%
same,"viability, T/C",[46],65.7%
same,"viability, T/C","second compound 10 µM, first compound 0.000949 µM",90%
same,"viability, T/C","second compound 10 µM, first compound 0.003 µM",95.2%
same,"viability, T/C",[47],84.1%
same,"viability, T/C",[48],80.1%
same,"viability, T/C",[49],83.1%
same,"viability, T/C",[50],68%
